Data: US11939327B2, “Heterocyclic compounds” (Takeda Pharmaceutical Company Limited, priority 2017, dated 2024)

Columns and labels:
human GluR1 flip = target: T1, human GluR1 flip (Homo sapiens, UniProt P42261); assay: AMPA receptor function-enhancing activity using calcium influx as index (CHO-K1/GluR1 flip/stargazin-expressing cells); type: cell-based; conditions: CHO-K1, test compound 30 μM with 3 mM glutamic acid, 100% = 3 mM glutamic acid + 300 μM cyclothiazide, 0% = 3 mM glutamic acid alone, read-out: hGluR1 flip/30 μM (%)
T1 construct: expressed in transfected cells; host or cells: CHO-K1
From the text: Experimental Example 1 Measurement method of AMPA receptor function-enhancing activity of compound using calcium influx as index
(1) Construction of Expression Gene
Human GluR1 flip cDNA was amplified by PCR method using forward primer […] (SEQ ID NO: 1) and reverse primer […] (SEQ ID NO: 2) artificially synthesized using human brain-derived cDNA (BD Bioscience) as a template. The amplified product was digested with restriction enzymes EcoRI, NotI (TAKARA SHUZO CO. LTD.) and incorporated into the same site of pcDNA3.1(+) (Invitrogen) to construct pcDNA3.1(+)/human GluR1 flip gene. Human stargazin cDNA was amplified by PCR method using forward primer […] (SEQ ID NO: 3) and reverse primer […] (SEQ ID NO: 4) artificially synthesized using human hippocampus cDNA as a template. The amplified product was digested with restriction enzymes XhoI, BamHI (TAKARA SHUZO CO. LTD.) and incorporated into the same site of pcDNA3.1(−) (Invitrogen) to construct pcDNA3.1 Zeo(−)/human stargazing gene.
(2) Construction of GluR1 Flip/Stargazin Expressing Cell
CHO-K1 cells passaged in a culture medium (Ham's F12 medium (Invitrogen) added with 10% inactivated fetal bovine serum (Morgate) and penicillin, streptomycin (Invitrogen)) were detached using 0.05% trypsin and 0.53 mM EDTA (Invitrogen) diluted with D-PBS(−). The detached cells were suspended in a culture medium, and recovered by centrifugation at 1,000 rpm. The recovered cells were re-suspended in D-PBS(−) and added into 0.4 cm electroporation cuvette (BioRad). pcDNA3.1(+)/human GluR1 flip gene (5 μg) and pcDNA3.1 Zeo(−)/human stargazin gene (15 μg) were added, and introduced into CHO-K1 cells under the conditions of 950 μFd, […] and using Gene Pulser II (BioRad). The introduced cells were cultured overnight in a culture medium. The next day, using a selection medium (culture medium added with zeocin (Invitrogen) at 250 μg/mL), the cells were plated in a 96 well plate at 250 cells/well. The clones showing drug resistance were selected, and GluR1 flip/stargazin expression clones were selected by an assay method shown below using calcium influx as an index.
(3) Measurement Method of AMPA Receptor Function-Enhancing Activity of Compound, Using Calcium Influx as an Index
CHO-K1/GluR1 flip/stargazin-expressing cells were plated on a 384 well black bottom transparent plate, and cultured for 2 days in a CO2 incubator (SANYO ELECTRIC Co. Ltd.) at 37° C. The medium of the cell plate was removed. A calcium indicator (Calcium5 Assay Kit, Molecular Devices) was diluted with an assay buffer (HBSS (Thermo Fisher Scientific), 0.1% BSA (Merck Millipoer) and 10 mM HEPES (Thermo Fisher Scientific)), and 1.25 mM probenecid (Dojindo Laboratories) was added thereto. The mixture prepared above was added at 30 μL/well (100 μL/well in case of 96 wells) to the well, and the well was left standing in 37° C., CO2 incubator for 1 hr. The cell plate was set in CellLux (PerkinElmer), a mixture (15 μL) (50 μL/well in case of 96 wells) of […] glutamic acid (final concentration 3 mM) diluted with an assay buffer and a test compound (test compound concentration 30 μM) was added thereto, and variation in the amount of fluorescence was measured for 3 min. The variation of fluorescence level of a well added with final concentration 3 mM of glutamic acid and 300 μM cyclothiazide (TOCRIS) was defined as 100%, the variation of fluorescence level of a well added with final concentration 3 mM of glutamic acid alone was defined as 0%, and the activity of the compound was calculated by the following formula. activity (%)=(X−C)/(T−C)×100 • T: variation of fluorescence level of well added with final concentration 3 mM of glutamic acid and 300 μM cyclothiazide • C: variation of fluorescence level of well added with final concentration 3 mM of glutamic acid alone • X: variation of fluorescence level of well added with test compound

Long Evans rats = assay: Novel object recognition test; type: in vivo, rat; conditions: male Long Evans rats; for Novel Object Interaction (%): 1 mg/kg p.o. 1 hr before acquisition trial and 1 hr before retention trial, retention trial 48 hr after acquisition, mean ± standard error; for novel object interaction (result in words): 1 mg/kg p.o., versus 0 mg/kg
From the text: Experimental Example 2 Novel Object Recognition Test
Male Long Evans rats were supplied by Japan SLC, and used at 7-week-old in the experiments. After arrival to the vivarium, animals were allowed a minimum of 1 week for acclimation. They were housed under a 12:12-h light/dark cycle in a temperature- and humidity-controlled laboratory and allowed food and water ad libitum.
A test compound was suspended in 0.5% methylcellulose in distilled water and orally administered (p.o.). All test compounds were dosed in a volume of 2 mL/kg body weight for rats.
(3) Novel Object Recognition Test
Novel object recognition test is a test system utilizing the novel object preference characteristics of rodents. This novel object recognition test consists of two trials, “acquisition trial” and “retention trial”, and, when an interval between these two trials is short, rodents spend a longer period for novel object exploration behaviors, and the preference dissipates as the interval gets longer. From this, the behavioral change in the novel object recognition test is considered to reflect the rodents' memory of the object during the acquisition trial. In this experimental example, the retention trial was carried out 48 hr after the acquisition trial. On the day before the test, for acclimation, Long-Evans rats were allowed to freely move about the test box (40×40×50 cm) for 10 minutes. On the test day, the rats were acclimated to the test room for about 1 hr prior to the test. The test compound (Compound A (Example 10), Compound B (Example 35), 1 mg/kg) were orally administered to the rats twice 1 hr before the acquisition trial and 1 hr before the retention trial. For the acquisition trial, two identical objects (A1, A2) were placed in the test box. The rats were put in the test box for 3 min, and the duration contacting each object was measured. The retention trial was carried out 48 hr after the acquisition trial. For the retention trial, the familiar object (A3) used for the acquisition trial and the novel object (B) different shape from A3 were placed in the test box. The rats were put in the test box for 3 min. The duration contacting each object in the acquisition trial and the retention trial, and the novel object interaction (%) was calculated. The novel object interaction (%) was expressed as (the duration contacting the novel object)/[(the duration contacting the novel object)+(the duration contacting the familiar object)]×100(%) at mean±standard error.

T1 sequence (P42261 19-906 isoform P42261-2 limits assumed): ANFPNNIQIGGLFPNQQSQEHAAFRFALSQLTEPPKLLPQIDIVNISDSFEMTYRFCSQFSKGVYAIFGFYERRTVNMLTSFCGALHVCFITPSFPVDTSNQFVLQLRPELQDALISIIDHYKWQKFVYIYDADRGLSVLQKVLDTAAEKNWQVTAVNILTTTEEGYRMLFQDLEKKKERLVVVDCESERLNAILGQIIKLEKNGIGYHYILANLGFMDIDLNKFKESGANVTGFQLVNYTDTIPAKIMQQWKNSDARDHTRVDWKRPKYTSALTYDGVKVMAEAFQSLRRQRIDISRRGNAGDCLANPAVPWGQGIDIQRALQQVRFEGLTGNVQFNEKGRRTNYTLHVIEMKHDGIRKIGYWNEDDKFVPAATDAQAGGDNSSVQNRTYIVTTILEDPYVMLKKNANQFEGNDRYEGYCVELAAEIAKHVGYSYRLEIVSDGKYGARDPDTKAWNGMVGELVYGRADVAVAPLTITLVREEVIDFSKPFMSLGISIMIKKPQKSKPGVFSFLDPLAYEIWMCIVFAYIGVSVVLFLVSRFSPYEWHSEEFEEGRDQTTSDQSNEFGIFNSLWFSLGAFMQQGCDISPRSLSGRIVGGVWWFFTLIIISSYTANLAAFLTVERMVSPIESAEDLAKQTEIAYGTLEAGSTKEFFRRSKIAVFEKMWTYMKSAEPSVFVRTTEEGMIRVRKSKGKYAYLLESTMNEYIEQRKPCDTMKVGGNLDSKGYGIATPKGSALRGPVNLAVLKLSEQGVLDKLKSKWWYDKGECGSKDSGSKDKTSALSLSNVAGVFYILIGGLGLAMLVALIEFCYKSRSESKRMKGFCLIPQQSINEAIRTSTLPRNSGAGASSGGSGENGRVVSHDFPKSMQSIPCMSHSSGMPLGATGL
T1 sequence (Q9Y698 whole entry partner): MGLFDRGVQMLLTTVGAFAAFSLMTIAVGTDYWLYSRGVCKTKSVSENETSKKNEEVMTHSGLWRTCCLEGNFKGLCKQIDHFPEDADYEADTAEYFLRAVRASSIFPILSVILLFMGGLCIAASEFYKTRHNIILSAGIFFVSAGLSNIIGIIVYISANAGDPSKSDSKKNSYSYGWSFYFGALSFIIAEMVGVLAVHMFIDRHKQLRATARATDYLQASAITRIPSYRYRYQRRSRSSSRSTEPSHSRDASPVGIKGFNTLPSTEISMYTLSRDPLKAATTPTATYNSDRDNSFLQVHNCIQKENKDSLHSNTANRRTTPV

| Compound | activation at 30 µM (human GluR1 flip) [%] | Novel Object Interaction (%) (Long Evans rats) | novel object interaction (result in words) (Long Evans rats) |
| --- | --- | --- | --- |
| O=C(c1ncc(-c2cccc3c2nc(C(F)(F)F)n3CC(F)F)cc1F)N1CCOCC1 [Example 35, (5-(1-(2,2-difluoroethyl)-2-(trifluoromethyl)-1H-benzimidazol-4-yl)-3-fluoropyridin-2-yl)(morpholin-4-yl)methanone] | 81.2 | 61.28 ± 2.35 | increased |
| O=C(c1ccc(-c2nccc3c2nc(C(F)(F)F)n3CC(F)F)cc1F)N1CCOCC1 [Example 10, (4-(1-(2,2-difluoroethyl)-2-(trifluoromethyl)-1H-imidazo[4,5-c]pyridin-4-yl)-2-fluorophenyl)(morpholin-4-yl)methanone] | 90.5 | 56.32 ± 1.56 | increased |
